Measurements: ChEMBL document CHEMBL3627685, “Identification of a molecular target of kurahyne, an apoptosis-inducing lipopeptide from marine cyanobacterial assemblages” (Bioorg Med Chem Lett, 2015)
Activity calls are given as the source filed them. No cut-off for these calls is given here. Starred links: 1 amine or outer side, 2 acyl side, 3 side chain; linkers in the order of their positions; H or OH if unused. Non-standard residues stand in square brackets, D forms with d. Residues, ends and D or L forms follow the SMILES beside them. *: point of attachment. X2 = O=C(O)c1cc(N*)ccc1-c1c2ccc(=O)cc-2oc2cc(O)ccc12; Pyrrolidine(2S-propanoyl) = CCC(=O)[C@@H]1CCCN1*; Biotin = O=C1N[C@H]2[C@H](CS[C@H]2CCCCC(=O)*)N1; X3 = C/C(=C\CCCc1cn(CCCN[*:1])nn1)C(=O)[*:2]; NMeI = CC[C@H](C)[C@H](NC)C(=O)O; PEG4 = NCCOCCOCCOCCOCCC(=O)O; NMeV = CN[C@H](C(=O)O)C(C)C; CO = O=C([*:1])[*:2]

What was measured:
[1] = system: HeLa S3; assay: Induction of Ca2+ release from endoplasmic reticulum into cytosol in human HeLaS3 cells at 10 uM by fura-2/AM-based spectrofluorometric analysis; assay type: functional, cell-based
[2] = system: HeLa; assay: Induction of endoplasmic reticulum stress in human HeLa cells assessed as upregulation of Bip mRNA expression at 1 uM after 6 hrs by RT-PCR analysis; assay type: functional, cell-based
[3] = target: Sarcoplasmic/endoplasmic reticulum calcium ATPase 1 (Oryctolagus cuniculus) (UniProt P04191); assay: Inhibition of ATPase activity of SERCA1a in rabbit sarcoplasmic reticulum vesicles at 30 uM measured for 3 mins by lactate dehydrogenase/pyruvate kinase coupled assay
[4] = system: HeLa S3; assay: Induction of Ca2+ release from endoplasmic reticulum into cytosol in human HeLaS3 cells at 1 uM by fura-2/AM-based spectrofluorometric analysis; assay type: functional, cell-based
[5] = system: HeLa; assay: Induction of endoplasmic reticulum stress in human HeLa cells assessed as upregulation of CHOP mRNA expression at 1 uM after 6 hrs by RT-PCR analysis; assay type: functional, cell-based
[6] = system: HeLa; assay: Induction of endoplasmic reticulum stress in human HeLa cells assessed as upregulation of Bip mRNA expression at 100 uM after 6 hrs by RT-PCR analysis; assay type: functional, cell-based
[7] = system: HeLa; assay: Binding affinity to SERCA in human HeLa cells at […] after 12 hrs by immunoblot analysis; assay type: cell-based
[8] = Drug uptake in endoplasmic reticulum in human HeLa cells at 10 uM after 6 hrs by DsRed/DAPI dye-based fluorescence microscopic analysis; assay type: ADME, cell-based
[9] = system: HCT-15; assay: Cytotoxicity against human HCT15 cells assessed as growth inhibition by sulforhodamine B assay; assay type: functional
[10] = system: HT-29; assay: Cytotoxicity against human HT-29 cells assessed as growth inhibition by sulforhodamine B assay; assay type: functional
[11] = system: OVCAR-3; assay: Cytotoxicity against human OVCAR3 cells assessed as growth inhibition by sulforhodamine B assay; assay type: functional
[12] = system: HCC 2998; assay: Cytotoxicity against human HCC2998 cells assessed as growth inhibition by sulforhodamine B assay; assay type: functional
[13] = Cytotoxicity against human SNB78 cells assessed as growth inhibition by sulforhodamine B assay; assay type: functional; details: SNB-78
[14] = system: HL-60; assay: Cytotoxicity against human HL60 cells assessed as growth inhibition after 72 hrs by MTT assay; assay type: functional, cell-based; details: HL-60, 72 h
[15] = system: SF-268; assay: Cytotoxicity against human SF268 cells assessed as growth inhibition by sulforhodamine B assay; assay type: functional
[16] = system: MCF7; assay: Cytotoxicity against human MCF7 cells assessed as growth inhibition by sulforhodamine B assay; assay type: functional
[17] = Cytotoxicity against human MKN74 cells assessed as growth inhibition by sulforhodamine B assay; assay type: functional; details: MKN-74
[18] = system: HeLa S3; assay: Induction of Ca2+ release from endoplasmic reticulum into cytosol in human HeLaS3 cells by fura-2/AM-based spectrofluorometric analysis; assay type: functional, cell-based
[19] = system: KM12; assay: Cytotoxicity against human KM12 cells assessed as growth inhibition by sulforhodamine B assay; assay type: functional
[20] = Cytotoxicity against mouse BMDM assessed as growth inhibition after 72 hrs by MTT assay
[21] = system: SF-539; assay: Cytotoxicity against human SF539 cells assessed as growth inhibition by sulforhodamine B assay; assay type: functional
[22] = system: DU-145; assay: Cytotoxicity against human DU145 cells assessed as growth inhibition by sulforhodamine B assay; assay type: functional
[23] = system: St-4; assay: Cytotoxicity against human St-4 cells assessed as growth inhibition by sulforhodamine B assay; assay type: functional
[24] = system: NCI-H460; assay: Cytotoxicity against human NCI-H460 cells assessed as growth inhibition by sulforhodamine B assay; assay type: functional
[25] = system: NCI-H23; assay: Cytotoxicity against human NCI-H23 cells assessed as growth inhibition by sulforhodamine B assay; assay type: functional
[26] = system: HCT-116; assay: Cytotoxicity against human HCT116 cells assessed as growth inhibition by sulforhodamine B assay; assay type: functional
[27] = system: ACHN; assay: Cytotoxicity against human ACHN cells assessed as growth inhibition by sulforhodamine B assay; assay type: functional
[28] = system: NCI-H522; assay: Cytotoxicity against human NCI-H522 cells assessed as growth inhibition by sulforhodamine B assay; assay type: functional
[29] = system: LOX IMVI; assay: Cytotoxicity against human LOXIMVI cells assessed as growth inhibition by sulforhodamine B assay; assay type: functional
[30] = target: Sarcoplasmic/endoplasmic reticulum calcium ATPase 1 (Oryctolagus cuniculus) (UniProt P04191); assay: Inhibition of ATPase activity of SERCA1a in rabbit sarcoplasmic reticulum vesicles measured for 3 mins by lactate dehydrogenase/pyruvate kinase coupled assay
[31] = system: OVCAR-4; assay: Cytotoxicity against human OVCAR4 cells assessed as growth inhibition by sulforhodamine B assay; assay type: functional
[32] = system: NCI-H226; assay: Cytotoxicity against human NCI-H226 cells assessed as growth inhibition by sulforhodamine B assay; assay type: functional
[33] = Cytotoxicity against human RXF631L cells assessed as growth inhibition by sulforhodamine B assay; assay type: functional; details: RXF 631
[34] = Cytotoxicity against human DMS273 cells assessed as growth inhibition by sulforhodamine B assay; assay type: functional; details: DMS-273
[35] = Cytotoxicity against human MKN28 cells assessed as growth inhibition by sulforhodamine B assay; assay type: functional; details: MKN-28
[36] = Cytotoxicity against human HBC4 cells assessed as growth inhibition by sulforhodamine B assay; assay type: functional
[37] = system: HeLa; assay: Induction of endoplasmic reticulum stress in human HeLa cells assessed as upregulation of Bip mRNA expression at 10 uM after 6 hrs by RT-PCR analysis; assay type: functional, cell-based
[38] = system: A549; assay: Cytotoxicity against human A549 cells assessed as growth inhibition by sulforhodamine B assay; assay type: functional
[39] = system: PC-3; assay: Cytotoxicity against human PC3 cells assessed as growth inhibition by sulforhodamine B assay; assay type: functional
[40] = Cytotoxicity against human DMS114 cells assessed as growth inhibition by sulforhodamine B assay; assay type: functional; details: DMS-114
[41] = system: OVCAR-8; assay: Cytotoxicity against human OVCAR8 cells assessed as growth inhibition by sulforhodamine B assay; assay type: functional
[42] = system: MDA-MB-231; assay: Cytotoxicity against human MDA-MB-231 cells assessed as growth inhibition by sulforhodamine B assay; assay type: functional
[43] = Cytotoxicity against human HBC5 cells assessed as growth inhibition by sulforhodamine B assay; assay type: functional
[44] = system: SK-OV-3; assay: Cytotoxicity against human SKOV3 cells assessed as growth inhibition by sulforhodamine B assay; assay type: functional
[45] = system: HeLa; assay: Cytotoxicity against human HeLa cells assessed as growth inhibition after 72 hrs by MTT assay; assay type: functional, cell-based
[46] = system: U-251; assay: Cytotoxicity against human U251 cells assessed as growth inhibition by sulforhodamine B assay; assay type: functional
[47] = system: SF-295; assay: Cytotoxicity against human SF295 cells assessed as growth inhibition by sulforhodamine B assay; assay type: functional
[48] = Cytotoxicity against human MKN45 cells assessed as growth inhibition by sulforhodamine B assay; assay type: functional; details: MKN-45
[49] = system: SNB-75; assay: Cytotoxicity against human SNB75 cells assessed as growth inhibition by sulforhodamine B assay; assay type: functional
[50] = system: OVCAR-5; assay: Cytotoxicity against human OVCAR5 cells assessed as growth inhibition by sulforhodamine B assay; assay type: functional
[51] = Cytotoxicity against human MKN1 cells assessed as growth inhibition by sulforhodamine B assay; assay type: functional; details: MKN-1
[52] = system: HeLa; assay: Induction of endoplasmic reticulum stress in human HeLa cells assessed as upregulation of CHOP mRNA expression at 10 uM after 6 hrs by RT-PCR analysis; assay type: functional, cell-based
[53] = Cytotoxicity against human BSY1 cells assessed as growth inhibition by sulforhodamine B assay; assay type: functional; details: BSY-1
[54] = Cytotoxicity against human MKN7 cells assessed as growth inhibition by sulforhodamine B assay; assay type: functional; details: MKN-7

Sarcoplasmic/endoplasmic reticulum calcium ATPase 1 (Oryctolagus cuniculus), sequence (P04191 whole entry): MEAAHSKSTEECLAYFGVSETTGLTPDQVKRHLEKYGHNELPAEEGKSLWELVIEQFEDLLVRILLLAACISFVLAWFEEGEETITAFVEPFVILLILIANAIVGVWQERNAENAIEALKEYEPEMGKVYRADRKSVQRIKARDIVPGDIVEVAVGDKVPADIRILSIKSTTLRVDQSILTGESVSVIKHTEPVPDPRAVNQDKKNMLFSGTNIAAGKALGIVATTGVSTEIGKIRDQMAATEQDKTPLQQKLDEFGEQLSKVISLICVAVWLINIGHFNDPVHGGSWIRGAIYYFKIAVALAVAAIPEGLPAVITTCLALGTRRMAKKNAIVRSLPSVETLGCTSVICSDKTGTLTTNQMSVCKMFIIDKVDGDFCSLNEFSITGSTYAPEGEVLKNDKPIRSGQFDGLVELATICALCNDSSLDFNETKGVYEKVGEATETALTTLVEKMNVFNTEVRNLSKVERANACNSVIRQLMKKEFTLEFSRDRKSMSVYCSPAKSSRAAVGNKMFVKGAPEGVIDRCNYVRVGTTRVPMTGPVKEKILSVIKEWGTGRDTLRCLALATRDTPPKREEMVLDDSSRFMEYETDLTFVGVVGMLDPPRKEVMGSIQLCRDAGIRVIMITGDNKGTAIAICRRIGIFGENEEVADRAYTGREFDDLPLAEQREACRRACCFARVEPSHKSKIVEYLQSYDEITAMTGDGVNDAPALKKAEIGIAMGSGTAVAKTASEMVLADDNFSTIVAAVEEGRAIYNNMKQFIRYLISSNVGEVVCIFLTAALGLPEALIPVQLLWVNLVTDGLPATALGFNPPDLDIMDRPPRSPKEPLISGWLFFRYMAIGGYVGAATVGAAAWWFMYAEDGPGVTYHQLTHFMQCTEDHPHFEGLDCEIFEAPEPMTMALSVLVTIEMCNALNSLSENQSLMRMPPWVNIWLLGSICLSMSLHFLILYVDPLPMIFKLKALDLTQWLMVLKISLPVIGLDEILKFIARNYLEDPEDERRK

## CC(=O)C1=C(O)[C@@H]2[C@H]3c4c[nH]c5cccc(c45)C[C@H]3C(C)(C)N2C1=O
[1]
  Activity: Active

## C/C=C(/C)C(=O)O[C@H]1C(C)=C2[C@H]([C@@H]1OC(=O)CCCCCCC)[C@@](C)(OC(C)=O)C[C@H](OC(=O)CCC)[C@@]1(O)[C@H]2OC(=O)[C@@]1(C)O
[2]
  Activity: Active
[3]
  inhibition: Active
[4]
  Activity: Active
[5]
  Activity: Active

## C#CCCC/C=C(\C)C(=O)N(C)[C@H](C(=O)N(C)[C@H](C(=O)N(C)[C@H](C(=O)N(C)[C@H](C(=O)N1CCC[C@H]1C(=O)N1CCC[C@H]1/C(CC)=N/OCC(=O)NCCCCCNC(=S)Nc1ccc(-c2c3ccc(=O)cc-3oc3cc(O)ccc23)c(C(=O)O)c1)C(C)C)C(C)C)[C@@H](C)CC)[C@@H](C)CC
[6]
  Activity: inactive

## CCC(=O)[C@@H]1CCCN1C(=O)[C@@H]1CCCN1C(=O)[C@H](C(C)C)N(C)C(=O)[C@H](C(C)C)N(C)C(=O)[C@H]([C@@H](C)CC)N(C)C(=O)[C@H]([C@@H](C)CC)N(C)C(=O)/C(C)=C/CCCc1cn(CCCNC(=O)CCOCCOCCOCCOCCNC(=O)CCCC[C@@H]2SC[C@@H]3NC(=O)N[C@@H]32)nn1 ({Biotin-PEG4}-[X3][NMeI][NMeI][NMeV][NMeV]P-{Pyrrolidine(2S-propanoyl)})
[7]
  Activity: Active

## CCC(=O)[C@@H]1CCCN1C(=O)[C@@H]1CCCN1C(=O)[C@H](C(C)C)N(C)C(=O)[C@H](C(C)C)N(C)C(=O)[C@H]([C@@H](C)CC)N(C)C(=O)[C@H]([C@@H](C)CC)N(C)C(=O)/C(C)=C/CCCc1cn(CCCNC(=O)Nc2ccc(-c3c4ccc(=O)cc-4oc4cc(O)ccc34)c(C(=O)O)c2)nn1 ({X2-CO}-[X3][NMeI][NMeI][NMeV][NMeV]P-{Pyrrolidine(2S-propanoyl)})
[6]
  Activity: Active
[8]
  Drug uptake: Active

## C#CCCC/C=C(\C)C(=O)N(C)[C@H](C(=O)N(C)[C@H](C(=O)N(C)[C@H](C(=O)N(C)[C@H](C(=O)N1CCC[C@H]1C(=O)N1CCC[C@H]1C(=O)CC)C(C)C)C(C)C)[C@@H](C)CC)[C@@H](C)CC (HELM PEPTIDE1{[C#CCCC/C=C(\C)C(=O)[*:2]].[meI].[meI].[meV].[meV].P.[CCC(=O)[C@@H]1CCCN1[*:1]]}$$$$V2.0)
[9]
  GI50: 11.5 µM
[10]
  GI50: 4.47 µM
[11]
  GI50: 6.61 µM
[12]
  GI50: 14.8 µM
[13]
  GI50: 16.6 µM
[14]
  IC50: 1.5 µM
[15]
  GI50: 5.62 µM
[16]
  GI50: 3.98 µM
[17]
  GI50: 3.72 µM
[18]
  Activity: Dose-dependent effect
[19]
  GI50: 12.9 µM
[20]
  IC50: 1.96 µM
[21]
  GI50: 10 µM
[22]
  GI50: 13.8 µM
[23]
  GI50: 13.2 µM
[24]
  GI50: 9.55 µM
[25]
  GI50: 13.8 µM
[26]
  GI50: 5.13 µM
[27]
  GI50: 13.5 µM
[28]
  GI50: 2.4 µM
[29]
  GI50: 3.89 µM
[30]
  inhibition: Dose-dependent effect
[31]
  GI50: 11 µM
[32]
  GI50: 7.24 µM
[33]
  GI50: 5.89 µM
[34]
  GI50: 5.5 µM
[35]
  GI50: 12.9 µM
[36]
  GI50: 12.3 µM
[37]
  Activity: Active
[38]
  GI50: 7.24 µM
[39]
  GI50: 4.47 µM
[40]
  GI50: 4.9 µM
[41]
  GI50: 14.5 µM
[42]
  GI50: 4.17 µM
[43]
  GI50: 10.5 µM
[44]
  GI50: 11.2 µM
[45]
  IC50: 3.9 µM
[46]
  GI50: 8.32 µM
[47]
  GI50: 10.7 µM
[48]
  GI50: 7.94 µM
[49]
  GI50: 14.5 µM
[50]
  GI50: 11.2 µM
[51]
  GI50: 15.1 µM
[52]
  Activity: Active
[53]
  GI50: 3.09 µM
[54]
  GI50: 7.41 µM
